Experimental data published in EP4647082A1, “PHARMACEUTICAL COMPOSITION COMPRISING A CGRP RECEPTOR ANTAGONIST FOR THE TREATMENT OF ACUTE MIGRAINE” (NUVIE BIO, Inc., priority 2024, dated 2025).
Bridge positions count the residues as written; N and C are the ends. Square brackets hold non-standard residues; d marks the D form. Peptide text beside a SMILES is read from it. * marks the point of attachment. Phe(2-CONH2) = NC(=O)c1ccccc1C[C@H](N)C(=O)O; Orn(iPr) = CC(C)NCCC[C@H](N)C(=O)O; Oxazole2carbonyl = O=C(c1ncco1)*; 3Pal = N[C@@H](Cc1cccnc1)C(=O)O

Assay: Degradation rates of 1 mg/mL solutions of AXN-001 at different pH and temperatures over 30 days
Type: physicochemical
Method: To achieve the higher pH values, an isotonic 10 mM phosphate buffer was used.
The degradation rates were then determined for 1 mg/mL solutions of AXN-001 at pH 3.5, 4.5, 5.5, 6.5, and 7.5, when kept at 2-8°C, 25°C, 40°C, and 60°C for 30 days. Table 1: Degradation rates
Degradation rates at 2-8° C were not determined ("n.d.") because degradation could not be measured at thirty days (with the exception of pH 7.5).

**Q.** With `CC(C)NCCC[C@@H]1NC(=O)[C@@H](NC(=O)[C@H](Cc2ccccc2C(N)=O)NC(=O)[C@H](NC(=O)c2ncco2)C(C)C)CSSC[C@@H](C(=O)N[C@@H](Cc2cccnc2)C(N)=O)NC(=O)[C@H](Cc2ccccc2)NC(=O)[C@@H]2CCCN2C(=O)CNC(=O)[C@H](C(C)C)NC(=O)[C@H](CC(=O)O)NC1=O` [AXN-001, Oxazole-2-carbonyl-D-Val-Phe(2-Cbm)-c(Cys-Orn (iPr)-Asp-Val-Gly-Pro-Phe-Cys)-3Pal-NH2] (Oxazole2carbonyl-[dV][Phe(2-CONH2)]C[Orn(iPr)]DVGPFC[3Pal]-NH2; disulfide 3-10) as the compound, how does the “Degradation Rates” value (pH 3.5, 25°C) read?
**A.** 0.058 %/day

**Q.** What about the “Degradation Rates” value (pH 3.5, 40°C) of the same compound?
**A.** 0.20 %/day

**Q.** And the “Degradation Rates” value (pH 3.5, 60°C)?
**A.** 1.50 %/day

**Q.** What about the “Degradation Rates” value (pH 4.5, 25°C) of the same compound?
**A.** 0.019 %/day

**Q.** And the “Degradation Rates” value (pH 4.5, 40°C)?
**A.** 0.12 %/day

**Q.** And the “Degradation Rates” value (pH 4.5, 60°C)?
**A.** 1.19 %/day

**Q.** And the “Degradation Rates” value (pH 5.5, 25°C)?
**A.** 0.007 %/day

**Q.** And the “Degradation Rates” value (pH 5.5, 40°C)?
**A.** 0.23 %/day

**Q.** What about the “Degradation Rates” value (pH 5.5, 60°C) of the same compound?
**A.** 3.18 %/day

**Q.** What about the “Degradation Rates” value (pH 6.5, 25°C) of the same compound?
**A.** 0.039 %/day

**Q.** What about the “Degradation Rates” value (pH 6.5, 40°C) of the same compound?
**A.** 0.54 %/day

**Q.** What about the “Degradation Rates” value (pH 6.5, 60°C) of the same compound?
**A.** 3.47 %/day

**Q.** And the “Degradation Rates” value (pH 7.5, 2-8°C)?
**A.** 0.02 %/day

**Q.** And the “Degradation Rates” value (pH 7.5, 25°C)?
**A.** 0.605 %/day

**Q.** What about the “Degradation Rates” value (pH 7.5, 40°C) of the same compound?
**A.** 1.62 %/day

**Q.** What about the “Degradation Rates” value (pH 7.5, 60°C) of the same compound?
**A.** 5.55 %/day
